Data: patent US20250144067A1, “PERSONALIZED STARVATION THERAPY FOR CANCER” (Faeth Therapeutics, Inc., priority 2021, published 2025)
Counter-ions that a name gives are not always drawn.

Assays:
[1] = tested on: NCI-H292 lung cancer cells; experiment: FDA drug screening, complete media vs cholesterol-free media with simvastatin (TABLE 2); assay type: cell-based, human; details: for Cholesterol-free media + simvastatin (0.04 μM) / Complete Media: NCI-H292 cells
[2] = tested on: NCI-H292 lung cancer cells; experiment: FDA drug screening, complete media vs cholesterol-free media without statin (TABLE 1); assay type: cell-based, human
[3] = FDA drug library screen, cholesterol-free media with simvastatin 0.04 μM
[4] = FDA drug library screen, complete media
[5] = complete media minus cholesterol-free media + simvastatin, >0 enhanced anti-cancer activity, about 0 neutral, <0 antagonist
[6] = Complete minus Cholesterol-free, greater than 0 enhanced anti-cancer activity, about 0 neutral, below 0 antagonists
[7] = NCI-H292 cells in cholesterol-free media without statin
[8] = NCI-H292 cells in complete media
[9] = cholesterol-free media with simvastatin 0.04 μM, FDA drug library screen (TABLE 2)
[10] = complete media, FDA drug library screen (TABLE 2)
[11] = Complete minus Cholesterol-free, […]
[12] = NCI-H292 cells, FDA drug library screen, cholesterol-free media without statin
[13] = NCI-H292 cells, FDA drug library screen, complete media
[14] = complete media minus cholesterol-free media + simvastatin (0.04 μM), >0 enhanced anti-cancer activity, about 0 neutral, <0 antagonist
[15] = Complete minus Cholesterol-free, greater than 0 enhanced anti-cancer activity, about 0 neutral, below 0 antagonist
[16] = FDA library drug in cholesterol-free media with simvastatin 0.04 μM
[17] = FDA library drug in complete media
[18] = complete media vs cholesterol-free media + simvastatin (0.04 μM), >0 enhanced anti-cancer activity, about 0 neutral, <0 antagonist
[19] = NCI-H292 cells, cholesterol-free media without statin, FDA drug library screen
[20] = NCI-H292 cells, complete media, FDA drug library screen
[21] = complete media vs cholesterol-free media + simvastatin (0.04 μM), […]
[22] = NCI-H292 cells, cholesterol-free media without statin
[23] = Complete minus Cholesterol-free, >0 enhanced anti-cancer activity, about 0 neutral, <0 antagonist

Q: Which results are given for `O=C(OC[C@H]1O[C@@H](OC(=O)c2cc(O)c(O)c(OC(=O)c3cc(O)c(O)c(O)c3)c2)[C@H](OC(=O)c2cc(O)c(O)c(OC(=O)c3cc(O)c(O)c(O)c3)c2)[C@@H](OC(=O)c2cc(O)c(O)c(OC(=O)c3cc(O)c(O)c(O)c3)c2)[C@@H]1OC(=O)c1cc(O)c(O)c(OC(=O)c2cc(O)c(O)c(O)c2)c1)c1cc(O)c(O)c(OC(=O)c2cc(O)c(O)c(O)c2)c1` [Tannic acid]?
A: Cholesterol-free media + simvastatin (0.04 μM) [1, 3]: 1.824; Complete Media [1, 4]: 2.065; Difference [1, 5]: 0.24; Difference [2, 6]: −0.60; Cholesterol-free [2, 7]: 1.391; Complete [2, 8]: 0.7941

Q: For `Cc1coc2c1C(=O)C(=O)c1c-2ccc2c(C)cccc12` [Tanshinone I], which “Cholesterol-free media + simvastatin (0.04 μM)” value [1, 9] is on record?
A: 0.9012

Q: And the “Complete Media” value [1, 10]?
A: 0.8645

Q: And the Difference ([1]; complete media minus cholesterol-free media + simvastatin (0.04 μM), […])?
A: −0.04

Q: And the Difference [2, 11]?
A: −0.07

Q: And the Cholesterol-free [2, 12]?
A: 0.8572

Q: What about the Complete [2, 13] of the same compound?
A: 0.783

Q: What does the source list for `CCC(=O)NC[C@@H]1C[C@H]1c1cccc2c1CCO2` [Tasimelteon]?
A: Cholesterol-free media + simvastatin (0.04 μM) [1, 9]: 0.9943; Complete Media [1, 10]: 0.9618; Difference [1, 14]: −0.03; Difference [2, 15]: −0.12; Cholesterol-free [2, 12]: 0.9406; Complete [2, 13]: 0.8228

Q: `NCCS(=O)(=O)O` [Taurine] was tested. Which “Cholesterol-free media + simvastatin (0.04 μM)” value [1, 16] did it give?
A: 1.971

Q: What about the “Complete Media” value [1, 17] of the same compound?
A: 1.363

Q: What about the Difference [1, 18] of the same compound?
A: −0.61

Q: And the Cholesterol-free [2, 19]?
A: 1.192

Q: And the Complete [2, 20]?
A: 1.309

Q: And the Difference ([2]; complete vs cholesterol-free media, >0 enhanced anti-cancer activity, about 0 neutral, <0 antagonist)?
A: 0.12

Q: Which results are given for `C[C@H](CCC(=O)NCCS(=O)(=O)[O-])[C@H]1CC[C@H]2[C@@H]3[C@@H](O)C[C@@H]4C[C@H](O)CC[C@]4(C)[C@H]3CC[C@]12C.[Na+]` [Taurochenodeoxycholic acid (sodium salt)]?
A: Cholesterol-free media + simvastatin (0.04 μM) [1, 16]: 1.88; Complete Media [1, 17]: 1.535; Difference [1, 21]: −0.35; Difference [2, 11]: −0.22; Cholesterol-free [2, 22]: 0.9501; Complete ([2]; NCI-H292 cells, complete media): 0.7299

Q: For `C[C@H](CCC(=O)NCCS(=O)(=O)O)[C@H]1CC[C@H]2[C@@H]3[C@H](O)C[C@@H]4C[C@H](O)CC[C@]4(C)[C@H]3CC[C@]12C` [Taurochenodeoxycholic acid], which “Cholesterol-free media + simvastatin (0.04 μM)” value ([1]; drug in cholesterol-free media with simvastatin 0.04 μM) is on record?
A: 1.179

Q: And the “Complete Media” value ([1]; drug in complete media)?
A: 1.003

Q: And the Difference [1, 21]?
A: −0.18

Q: What about the Difference [2, 11] of the same compound?
A: −0.12

Q: And the Cholesterol-free [2, 12]?
A: 0.9676

Q: What about the Complete [2, 13] of the same compound?
A: 0.8469

Q: What does the source list for `C[C@H](CCC(=O)NCCS(=O)(=O)O)[C@H]1CC[C@H]2[C@@H]3CC[C@@H]4C[C@H](O)CC[C@]4(C)[C@H]3C[C@H](O)[C@]12C` [Taurodeoxycholic acid (sodium hydrate)]?
A: Difference [1, 18]: −0.45; Difference [2, 23]: −0.23; Cholesterol-free [2, 22]: 1.216; Complete ([2]; NCI-H292 cells, complete media): 0.9829

Q: Which results are given for `OB1OCc2cc(F)ccc21` [Tavaborole]?
A: Cholesterol-free media + simvastatin (0.04 μM) [1, 9]: 1.181; Complete Media [1, 10]: 1.117; Difference [1, 14]: −0.06; Difference [2, 23]: −0.04; Cholesterol-free [2, 19]: 1.018; Complete [2, 20]: 0.9789

Q: What does the source list for `CCOC(=O)c1ccc(C#Cc2ccc3c(c2)C(C)(C)CCS3)nc1` [Tazarotene]?
A: Cholesterol-free media + simvastatin (0.04 μM) [1, 9]: 0.9107; Complete Media [1, 10]: 0.8646; Difference [1, 14]: −0.05; Difference [2, 15]: −0.11; Cholesterol-free [2, 12]: 0.7313; Complete [2, 13]: 0.6177

Q: How did the “Cholesterol-free media + simvastatin (0.04 μM)” value [1, 3] turn out when `CCN(c1cc(-c2ccc(CN3CCOCC3)cc2)cc(C(=O)NCc2c(C)cc(C)[nH]c2=O)c1C)C1CCOCC1` [Tazemetostat (hydrobromide)] was run?
A: 0.8785

Q: And the “Complete Media” value [1, 4]?
A: 1.469

Q: And the Difference [1, 5]?
A: 0.59

Q: And the Difference [2, 6]?
A: −0.47

Q: What about the Cholesterol-free [2, 7] of the same compound?
A: 1.683

Q: And the Complete [2, 8]?
A: 1.209
